From patent US20110039762A1, “TARGETED ANTIMICROBIAL MOIETIES” (C3 JIAN, INC., priority 2009, published 2011)
Entries after “also recorded” stand apart in the source; their conditions may differ.

System: microorganisms (e.g., bacteria, yeasts, fungi)
Assay: Targeting peptide binding to target microorganisms (Table 3)
Conditions: microorganism the targeting peptide binds; binding in aqueous buffers varied by peptide solubility, preferably 1x PBS

| Substance | Target(s) |
| --- | --- |
| 1T-154 (YFSFLEIVGMARR; Peptide with targeting and/or antimicrobial activity) [Peptide 1T-154] | P. gingivalis |
| 1T-159 (IFSLHHFALICSEMGTFAVSKRAKYKWEVL; Peptide with targeting and/or antimicrobial activity) [Peptide 1T-159] | P. gingivalis |
| 1T-170 (AYGKVFSMDIMLSENDKLIVLRISHHSAWH; Peptide with targeting and/or antimicrobial activity) [Peptide 1T-170] | P. gingivalis |
| 1T-177 (GTNVPTQILGYSREERFDYEPAPEQR; Peptide with targeting and/or antimicrobial activity) [Peptide 1T-177] | P. gingivalis; also recorded: S. gordonii; also recorded: S. mitis; also recorded: S. mutans; also recorded: S. oralis; also recorded: S. salivarious; also recorded: S. sanguinis |
| 1T-188 (HRKDVYKK; Peptide with targeting and/or antimicrobial activity) [Peptide 1T-188] | S. sanguinis |
| 1T-192 (ILVLLALQVELDSKFQY; Peptide with targeting and/or antimicrobial activity) [Peptide 1T-192] | S. sanguinis |
| 1T-193 (LMIFDKHANLKYKYGNRSFGVEAIM; Peptide with targeting and/or antimicrobial activity) [Peptide 1T-193] | S. sanguinis |
| 1T-195 (AASGFTYCASNGVWHPY; Peptide with targeting and/or antimicrobial activity) [Peptide 1T-195] | S. mutans |
| 1T-196 (KPEKEKLDTNTLMKVVNKALSLFDRLLIKFGA; Peptide with targeting and/or antimicrobial activity) [Peptide 1T-196] | F. nucleatum; also recorded: S. sanguinis |
| 1T-198 (MPVSKKRYMLSSAYATALGICYGQVATDEKESEITAIPDLLDYLSVEEYLL; Peptide with targeting and/or antimicrobial activity) [Peptide 1T-198] | P. gingivalis; also recorded: S. epidermidis; also recorded: S. gordonii; also recorded: S. mitis; also recorded: S. mutans; also recorded: S. oralis; also recorded: S. sanguinis |
| 1T-199 (RAGRIKKLSQKEAEPFEN; Peptide with targeting and/or antimicrobial activity) [Peptide 1T-199] | S. sanguinis |
| 1T-201 (KRKHENVIVAEEMRVIKN; Peptide with targeting and/or antimicrobial activity) [Peptide 1T-201] | S. sanguinis |
| 1T-207 (SPLEKYGTGSMTALTFLLGCCLLVLSKKSR; Peptide with targeting and/or antimicrobial activity) [Peptide 1T-207] | F. nucleatum; also recorded: S. sanguinis |
| 1T-215 (VCFKDISVFLSPFRGQEVLFCGKAKHSLIYVIGT; Peptide with targeting and/or antimicrobial activity) [Peptide 1T-215] | S. sanguinis |
| 1T-216 (FFLNVIAIRIPHF; Peptide with targeting and/or antimicrobial activity) [Peptide 1T-216] | S. sanguinis |
| 1T-217 (MLSNVLSRSVVSPNVDIPNSMVILSPLLISISNYH; Peptide with targeting and/or antimicrobial activity) [Peptide 1T-217] | F. nucleatum; also recorded: S. sanguinis |
| 1T-218 (KLIFAALGLVFLLIGLRDSRSK; Peptide with targeting and/or antimicrobial activity) [Peptide 1T-218] | F. nucleatum; also recorded: S. sanguinis |
| 1T-219 (RNINVSATFITEKSLV; Peptide with targeting and/or antimicrobial activity) [Peptide 1T-219] | S. sanguinis |
| 1T-222 (RIEASLISAIMFSMFNAIVKFLQK; Peptide with targeting and/or antimicrobial activity) [Peptide 1T-222] | F. nucleatum; also recorded: S. sanguinis |
| 1T-237 (EDPVPNHFTLRRNKKEKPSKS; Peptide with targeting and/or antimicrobial activity) [Peptide 1T-237] | S. sanguinis |
| 1T-239 (ADDLLNKRLTDLIMENAETVKTIDLDNSD; Peptide with targeting and/or antimicrobial activity) [Peptide 1T-239] | A. naeslundii; also recorded: S. gordonii; also recorded: S. mitis; also recorded: S. mutans; also recorded: S. oralis; also recorded: S. sanguinis |

| Substance | Target(s) |
| --- | --- |
| 1T-242 (KQVQNTTLIICGTVLLGILFKSYLKSQKSV; Peptide with targeting and/or antimicrobial activity) [Peptide 1T-242] | F. nucleatum; also recorded: S. sanguinis |
| 1T-248 (IGGALNSCG; Peptide with targeting and/or antimicrobial activity) [Peptide 1T-248] | S. sanguinis |
| 1T-249 (VFSVLKHTTWPTRKQSWHDFISILEYSAFFALVIFIFDKLLTLGLAELLKRF; Peptide with targeting and/or antimicrobial activity) [Peptide 1T-249] | F. nucleatum; also recorded: S. sanguinis |
| 1T-250 (LVQGDTILIENHVGTPVKDDGKDCLIIREADVLAVVND; Peptide with targeting and/or antimicrobial activity) [Peptide 1T-250] | S. mitis; also recorded: S. mutans; also recorded: S. oralis |
| 1T-252 (MKKNLKRFYALVLGFIIGCLFVSILIFIGY; Peptide with targeting and/or antimicrobial activity) [Peptide 1T-252] | F. nucleatum; also recorded: S. sanguinis |
| 1T-256 (KGKSLMPLLKQINQWGKLYL; Peptide with targeting and/or antimicrobial activity) [Peptide 1T-256] | S. sanguinis |
| 1T-258 (TINIDDKVLDYLKKINSKAITIDLIGCAS; Peptide with targeting and/or antimicrobial activity) [Peptide 1T-258] | A. naeslundii; also recorded: F. nucleatum; also recorded: P. gingivalis; also recorded: T. denticola; also recorded: S. mitis; also recorded: S. mutans; also recorded: S. oralis |
| 1T-259 (EKLKKILLKLAVCGKAWYTL; Peptide with targeting and/or antimicrobial activity) [Peptide 1T-259] | F. nucleatum; also recorded: P. gingivalis; also recorded: T. denticola; also recorded: S. mitis; also recorded: S. mutans; also recorded: S. oralis; also recorded: S. sanguinis |
| 1T-260 (NILYFIHDENQWEPQKAEIFRGSIKHCAWLSS; Peptide with targeting and/or antimicrobial activity) [Peptide 1T-260] | A. naeslundii; also recorded: P. gingivalis; also recorded: S. epidermidis; also recorded: S. gordonii; also recorded: S. mitis; also recorded: S. mutans; also recorded: S. oralis; also recorded: S. sanguinis |
| 1T-261 (SFEKNKIENNLKIAQAYIYIKPKPRICQA; Peptide with targeting and/or antimicrobial activity) [Peptide 1T-261] | F. nucleatum; also recorded: S. mutans; also recorded: S. oralis; also recorded: S. sanguinis |
| 1T-264 (LEGKFYMAEDFDKTPECFKDYV; Peptide with targeting and/or antimicrobial activity) [Peptide 1T-264] | S. sanguinis |
| 1T-266 (RAGTWLVVDEIR; Peptide with targeting and/or antimicrobial activity) [Peptide 1T-266] | S. sanguinis |
| 1T-267 (RIKEERKNRSYKFFIWRLFDEKTGFI; Peptide with targeting and/or antimicrobial activity) [Peptide 1T-267] | A. naeslundii; also recorded: F. nucleatum; also recorded: P. gingivalis; also recorded: T. denticola; also recorded: S. mitis; also recorded: S. mutans; also recorded: S. oralis; also recorded: S. sanguinis |
| 1T-268 (PITPKKEKCGLGTYAPKNPVFSKSRV; Peptide with targeting and/or antimicrobial activity) [Peptide 1T-268] | F. nucleatum; also recorded: S. mutans; also recorded: S. oralis; also recorded: S. sanguinis |
| 1T-269 (PLYVAAVEKINTAKKH; Peptide with targeting and/or antimicrobial activity) [Peptide 1T-269] | F. nucleatum; also recorded: S. mutans; also recorded: S. oralis; also recorded: S. sanguinis |
| 1T-270 (VHEFDIQKILQNR; Peptide with targeting and/or antimicrobial activity) [Peptide 1T-270] | F. nucleatum; also recorded: S. mutans; also recorded: S. oralis; also recorded: S. sanguinis |
| 1T-272 (QLAPIDKQLKAVKKIAFYESESTAAKAVTVA; Peptide with targeting and/or antimicrobial activity) [Peptide 1T-272] | F. nucleatum; also recorded: S. mutans; also recorded: S. oralis; also recorded: S. sanguinis |
| 1T-273 (YNEPNYKWLESYKIYKQRCEDRTGMYYTEET; Peptide with targeting and/or antimicrobial activity) [Peptide 1T-273] | F. nucleatum; also recorded: P. gingivalis; also recorded: T. denticola; also recorded: S. mitis; also recorded: S. mutans; also recorded: S. oralis |
| 1T-274 (ETTTEINAIKLHRIKQRSPQGTRRVN; Peptide with targeting and/or antimicrobial activity) [Peptide 1T-274] | F. nucleatum; also recorded: S. mutans; also recorded: S. oralis; also recorded: S. sanguinis |
| 1T-282 (ISLVFPAYT; Peptide with targeting and/or antimicrobial activity) [Peptide 1T-282] | F. nucleatum; also recorded: P. gingivalis; also recorded: S. gordonii; also recorded: S. mitis; also recorded: S. mutans; also recorded: S. oralis; also recorded: S. salivarious; also recorded: S. sanguinis |
| 1T-286 (LGFFNNKADLVKADTERDNRMSSLKIKDL; Peptide with targeting and/or antimicrobial activity) [Peptide 1T-286] | S. sanguinis |
